# Source: the NIST ThermoML archive (doi:10.1016/j.tca.2018.05.020)
# ± gives the expanded uncertainty stated by the source.
# Experiments:
# [1] = DSC
# [2] = Molar enthalpy of transition or fusion; conditions: Crystal; DSC
smiles,measurement,setting,value
CNC(=O)c1ccc(N2C(=S)N(c3ccc(C#N)c(C(F)(F)F)c3)C(=O)C2(C)C)cc1F [Enzalutamide],Triple point temperature,[1]; Crystal,469.15 ± 1 K
same,Glass transition temperature,[1]; Glass,85.00 ± 1 °C
same,Molar enthalpy of transition or fusion,[2],8.61 ± 0.222 kcal/mol
